Reference: patent US11014934B2, “Antiseptic drug” (AO “TATKHIMFARMPREPARATY”, priority 2017, dated 2021)
Like-named read-outs stand apart in the source and are kept apart here.

Experiments:
Test in all cases: MIC, serial dilutions in Müller-Hinton broth
Format in all cases: cell-based
E. faecium 30 = test system: E. faecium 30
How it was run: (§1)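 Broth microdilution in Müller-Hinton broth following MUK 4.2.1890-04, with two-fold compound dilutions at final 1-128 ug/ml. The inoculum was set to 0.5 McFarland and diluted to 10^7 CFU/ml before addition, then plates were incubated at 37° C. for 24 hours. MIC was the lowest concentration without visible growth, taking the highest of three independent runs.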

S. aureus 1131 MRSA = test system: S. aureus 1131 MRSA
How it was run: as §1

Acinetobacter spp. 1 = test system: Acinetobacter spp. 1
How it was run: as §1

S. intermedius 1061 MRSI = test system: S. intermedius 1061 MRSI
How it was run: as §1

E. faecium 28 = test system: E. faecium 28
How it was run: as §1

S. aureus 22 = test system: S. aureus 22
How it was run: as §1

S. aureus 1173 MRSA = test system: S. aureus 1173 MRSA
How it was run: as §1

Kl. pneumoniae 1766 = test system: Kl. pneumoniae 1766
How it was run: as §1

Moraxella sp. 765 = test system: Moraxella sp. 765
How it was run: as §1

Kl. pneumoniae 1781 = test system: Kl. pneumoniae 1781
How it was run: as §1

S. marcescens 1966 PR = test system: S. marcescens 1966 PR
How it was run: as §1

E. faecalis 3060 = test system: E. faecalis 3060
How it was run: as §1

S. aureus 983 MRSA = test system: S. aureus 983 MRSA
How it was run: as §1

E. faecium 4403 = test system: E. faecium 4403
How it was run: as §1

E. faecalis 3051 = test system: E. faecalis 3051
How it was run: as §1

Ps. aeruginosa 1913 PR = test system: Ps. aeruginosa 1913 PR
How it was run: as §1

Enterobacter spp. 16 = test system: Enterobacter spp. 16
How it was run: as §1

E. coli MG 1655 = test system: E. coli MG 1655
How it was run: as §1

S. aureus 1163 MRSA = test system: S. aureus 1163 MRSA
How it was run: as §1

Kl. pneumoniae 1342 PR = test system: Kl. pneumoniae 1342 PR
How it was run: as §1

E. faecium 4402 = test system: E. faecium 4402
How it was run: as §1

In the case of `CCCCCCCCCCCCCC(=O)NCCC[N+](C)(C)Cc1ccccc1.O.[Cl-]` [Miramistin, benzyldimethyl [3-(myristoylamino)propyl]-ammonium chloride monohydrate], the MIC (E. faecium 30; Enterococcus faecium, 30) is reported as < 0.5 µg/mL, the MIC (S. aureus 1131 MRSA; Staphylococcus aureus, MRSA) is reported as 4 µg/mL and the MIC (Acinetobacter spp. 1; Acinetobacter, SPP.1) is reported as 64 µg/mL. It also gave an MIC (S. intermedius 1061 MRSI) of 8 µg/mL, an MIC (E. faecium 28; Enterococcus faecium, 28) of 32 µg/mL and an MIC (S. aureus 22; Staphylococcus aureus, 22) of 8 µg/mL. It also gave an MIC (S. aureus 1173 MRSA; Staphylococcus aureus, MRSA) of 16 µg/mL, an MIC (Kl. pneumoniae 1766; Klebsiella pneumoniae, 1766) of 64 µg/mL and an MIC (Moraxella sp. 765; Moraxella, SP.765) of 64 µg/mL. It also gave an MIC (Kl. pneumoniae 1781; Klebsiella pneumoniae, 1781) of 64 µg/mL, an MIC (S. marcescens 1966 PR; Serratia marcescens, 1966PR) of 64 µg/mL and an MIC (E. faecalis 3060; Enterococcus faecalis, 3060) of 8 µg/mL. It also gave an MIC (S. aureus 983 MRSA; Staphylococcus aureus, MRSA) of 4 µg/mL, an MIC (E. faecium 4403; Enterococcus faecium, 4403) of 64 µg/mL and an MIC (E. faecalis 3051; Enterococcus faecalis, 3051) of 2 µg/mL. For the same compound, the MIC (Ps. aeruginosa 1913 PR; Pseudomonas aeruginosa, 1913PR) was > 64 µg/mL, the MIC (Enterobacter spp. 16; Enterobacter, SPP.16) was 64 µg/mL and the MIC (E. coli MG 1655; Escherichia coli, MG1655) was 8 µg/mL. It also gave an MIC (S. aureus 1163 MRSA; Staphylococcus aureus, MRSA) of 4 µg/mL, an MIC (Kl. pneumoniae 1342 PR; Klebsiella pneumoniae, 1342PR) of 64 µg/mL and an MIC (E. faecium 4402; Enterococcus faecium, 4402) of 4 µg/mL.
Work on `CCCCCCCCCCCC[N+](C)(C)Cc1cnc(C[N+](C)(C)CCCCCCCCCCCC)c2c1COC(CC)O2` (stereo not drawn) [Compound I, 5,8-(Bis(methylene (N, N-dimethyl-N-dodecylammonium))-2-ethyl-4H-[1,3]dioxino [4,5-c]pyridiniumdichloride] yielded an MIC (E. faecium 30; Enterococcus faecium, E. faecium 30, inoculum 10^7 CFU/ml, read-out: MIC) of 0.03 µg/mL, an MIC (S. aureus 1131 MRSA; Staphylococcus aureus, S. aureus 1131 MRSA, inoculum 10^7 CFU/ml, read-out: MIC) of 2 µg/mL and an MIC (Acinetobacter spp. 1; Acinetobacter spp. 1, inoculum 10^7 CFU/ml, read-out: MIC) of 16 µg/mL. For the same compound, the MIC (S. intermedius 1061 MRSI; S. intermedius 1061 MRSI, inoculum 10^7 CFU/ml, read-out: MIC) was 1 µg/mL, the MIC (E. faecium 28; Enterococcus faecium, E. faecium 28, inoculum 10^7 CFU/ml, read-out: MIC) was 0.03 µg/mL and the MIC (S. aureus 22; Staphylococcus aureus, S. aureus 22, inoculum 10^7 CFU/ml, read-out: MIC) was 1 µg/mL. It also gave an MIC (S. aureus 1173 MRSA; Staphylococcus aureus, S. aureus 1173 MRSA, inoculum 10^7 CFU/ml, read-out: MIC) of 2 µg/mL, an MIC (Kl. pneumoniae 1766; Klebsiella pneumoniae, Kl. pneumoniae 1766, inoculum 10^7 CFU/ml, read-out: MIC) of 16 µg/mL and an MIC (Moraxella sp. 765; Moraxella sp. 765, inoculum 10^7 CFU/ml, read-out: MIC) of 4 µg/mL. It also gave an MIC (Kl. pneumoniae 1781; Klebsiella pneumoniae, Kl. pneumoniae 1781, inoculum 10^7 CFU/ml, read-out: MIC) of 2 µg/mL, an MIC (S. marcescens 1966 PR; Serratia marcescens, S. marcescens 1966 PR, inoculum 10^7 CFU/ml, read-out: MIC) of 32 µg/mL and an MIC (E. faecalis 3060; Enterococcus faecalis, E. faecalis 3060, inoculum 10^7 CFU/ml, read-out: MIC) of 1 µg/mL. For the same compound, the MIC (S. aureus 983 MRSA; Staphylococcus aureus, S. aureus 983 MRSA, inoculum 10^7 CFU/ml, read-out: MIC) was 8 µg/mL, the MIC (E. faecium 4403; Enterococcus faecium, E. faecium 4403, inoculum 10^7 CFU/ml, read-out: MIC) was 0.03 µg/mL and the MIC (E. faecalis 3051; Enterococcus faecalis, E. faecalis 3051, inoculum 10^7 CFU/ml, read-out: MIC) was 4 µg/mL. For the same compound, the MIC (Ps. aeruginosa 1913 PR; Pseudomonas aeruginosa, Ps. aeruginosa 1913 PR, inoculum 10^7 CFU/ml, read-out: MIC) was 64 µg/mL, the MIC (Enterobacter spp. 16; Enterobacter spp. 16, inoculum 10^7 CFU/ml, read-out: MIC) was 8 µg/mL and the MIC (E. coli MG 1655; Escherichia coli, MG1655, E. coli MG 1655, inoculum 10^7 CFU/ml, read-out: MIC) was 2 µg/mL. It also gave an MIC (S. aureus 1163 MRSA; Staphylococcus aureus, S. aureus 1163 MRSA, inoculum 10^7 CFU/ml, read-out: MIC) of 4 µg/mL, an MIC (Kl. pneumoniae 1342 PR; Klebsiella pneumoniae, Kl. pneumoniae 1342 PR, inoculum 10^7 CFU/ml, read-out: MIC) of 32 µg/mL and an MIC (E. faecium 4402; Enterococcus faecium, E. faecium 4402, inoculum 10^7 CFU/ml, read-out: MIC) of 0.06 µg/mL.
In the case of “alkyldimethyl(phenylmethyl) ammonium chloride [Benzalconium chloride]”, the MIC (E. faecium 30; E. faecium 30, inoculum 10^7 CFU/ml) is reported as <0.5 µg/mL, the MIC (S. aureus 1131 MRSA; S. aureus 1131 MRSA, inoculum 10^7 CFU/ml) is reported as 2 µg/mL and the MIC (Acinetobacter spp. 1; Acinetobacter spp. 1, inoculum 10^7 CFU/ml) is reported as >64 µg/mL. For the same compound, the MIC (S. intermedius 1061 MRSI; S. intermedius 1061 MRSI, inoculum 10^7 CFU/ml) was 4 µg/mL, the MIC (E. faecium 28; E. faecium 28, inoculum 10^7 CFU/ml) was <0.5 µg/mL and the MIC (S. aureus 22; S. aureus 22, inoculum 10^7 CFU/ml) was <0.5 µg/mL. The MIC (S. aureus 1173 MRSA; S. aureus 1173 MRSA, inoculum 10^7 CFU/ml) was 8 µg/mL, the MIC (Kl. pneumoniae 1766; Kl. pneumoniae 1766, inoculum 10^7 CFU/ml) was 16 µg/mL and the MIC (Moraxella sp. 765; Moraxella sp. 765, inoculum 10^7 CFU/ml) was 32 µg/mL. It also gave an MIC (Kl. pneumoniae 1781; Kl. pneumoniae 1781, inoculum 10^7 CFU/ml) of 16 µg/mL, an MIC (S. marcescens 1966 PR; S. marcescens 1966 PR, inoculum 10^7 CFU/ml) of 64 µg/mL and an MIC (E. faecalis 3060; E. faecalis 3060, inoculum 10^7 CFU/ml) of 4 µg/mL. The MIC (S. aureus 983 MRSA; S. aureus 983 MRSA, inoculum 10^7 CFU/ml) was 4 µg/mL, the MIC (E. faecium 4403; E. faecium 4403, inoculum 10^7 CFU/ml) was 2 µg/mL and the MIC (E. faecalis 3051; E. faecalis 3051, inoculum 10^7 CFU/ml) was 2 µg/mL. For the same compound, the MIC (Ps. aeruginosa 1913 PR; Ps. aeruginosa 1913 PR, inoculum 10^7 CFU/ml) was >64 µg/mL, the MIC (Enterobacter spp. 16; Enterobacter spp. 16, inoculum 10^7 CFU/ml) was 4 µg/mL and the MIC (E. coli MG 1655; E. coli MG 1655, inoculum 10^7 CFU/ml) was 2 µg/mL. It also gave an MIC (S. aureus 1163 MRSA; S. aureus 1163 MRSA, inoculum 10^7 CFU/ml) of 4 µg/mL, an MIC (Kl. pneumoniae 1342 PR; Kl. pneumoniae 1342 PR, inoculum 10^7 CFU/ml) of 32 µg/mL and an MIC (E. faecium 4402; E. faecium 4402, inoculum 10^7 CFU/ml) of 1 µg/mL.
